Source: PMC9402538, “Rational design of a sensitivity-enhanced tracer for discovering efficient APC–Asef inhibitors” (Nature Communications, 2022)
Where two headings read alike, the source gives them in different places. Where a SMILES comes first, the peptide text is derived from it. The star is where a group is joined. Benzoyl(4-OMe) = COc1ccc(C(=O)*)cc1

Assays:
[1] = molecular target: T1, APC (303–739) (Homo sapiens, UniProt P25054); assay: FP competitive assay using tracer 7; assay type: binding; conditions: for IC50: Table 3 source data
T1 sequence (P25054 303-739): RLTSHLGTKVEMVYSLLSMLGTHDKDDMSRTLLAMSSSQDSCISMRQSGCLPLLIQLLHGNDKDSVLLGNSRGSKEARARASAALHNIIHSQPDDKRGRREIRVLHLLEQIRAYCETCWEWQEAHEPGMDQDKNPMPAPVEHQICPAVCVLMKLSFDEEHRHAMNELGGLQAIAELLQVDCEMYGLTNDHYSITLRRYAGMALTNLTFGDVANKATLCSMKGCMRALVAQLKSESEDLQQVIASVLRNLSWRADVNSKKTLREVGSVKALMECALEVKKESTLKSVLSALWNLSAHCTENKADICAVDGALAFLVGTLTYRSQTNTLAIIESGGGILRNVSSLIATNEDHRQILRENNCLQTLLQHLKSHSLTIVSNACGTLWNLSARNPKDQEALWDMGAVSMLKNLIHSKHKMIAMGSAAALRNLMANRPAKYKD
Summary of the method: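 Peptide dilutions were first incubated 1 h at room temperature with APC (303–739) in HEPES pH 7.5 buffer containing 300 mM NaCl, EDTA and DTT. Added FITC tracer 7 (400 nM stock) displaced over a further 1.5 h before polarization reading. IC50 values came from nonlinear regression fits of triplicate data.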

[2] = molecular target: T2, APC–Asef PPI (HA–APC (303–876), FLAG–Asef (170–632)) (Homo sapiens, UniProt P25054); assay: Exogenous Co-IP of APC–Asef in drug-treated HEK293T cells; conditions: 24 h, TAT + linker and MAI-516 50 μM, MAIT-516 25 and 50 μM
T2 sequence (P25054 303-876): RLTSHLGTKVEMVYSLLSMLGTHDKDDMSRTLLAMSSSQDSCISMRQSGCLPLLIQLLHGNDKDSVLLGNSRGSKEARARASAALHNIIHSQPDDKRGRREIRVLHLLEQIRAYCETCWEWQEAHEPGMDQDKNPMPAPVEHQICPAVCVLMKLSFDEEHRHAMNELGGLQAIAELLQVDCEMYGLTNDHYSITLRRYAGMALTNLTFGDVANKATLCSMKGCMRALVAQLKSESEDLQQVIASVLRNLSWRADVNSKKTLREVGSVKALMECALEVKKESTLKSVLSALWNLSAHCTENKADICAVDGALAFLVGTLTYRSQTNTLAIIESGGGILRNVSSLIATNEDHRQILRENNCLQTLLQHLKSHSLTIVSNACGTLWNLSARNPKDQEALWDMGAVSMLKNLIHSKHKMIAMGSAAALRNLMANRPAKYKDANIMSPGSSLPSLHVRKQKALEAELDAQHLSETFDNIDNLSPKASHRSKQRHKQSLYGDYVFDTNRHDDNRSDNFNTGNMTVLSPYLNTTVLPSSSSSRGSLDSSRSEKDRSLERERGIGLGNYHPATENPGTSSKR
Description: For direct western blot analysis, cells were harvested in NP-40 lysis buffer (1% NP-40, 50 mM Tris-HCl at pH 7.5, 150 mM NaCl, 1 mM PMSF, 25 mM NaF, 1 mM Na3VO4) supplemented with cOmplete™ Protease Inhibitor Cocktail (Roche). […] Forty-eight hours after transfection, the cells were washed twice with cold PBS and lysed in NP-40 lysis buffer for 1 h on ice. […] The next day, the samples were centrifuged (7,000 × g for 30 s at 4 °C), and the supernatant was discarded. The beads were washed four times with NP-40 lysis buffer, and the bound proteins were eluted in SDS sample buffer for immunoblotting analysis and detected with anti-FLAG (Sigma; F1804, 1:1,000), anti-HA antibody (Sigma; H9658, 1:20,000) and goat anti-mouse IgG secondary antibody (Signalway antibody; L3032, 1:50,000). […] Twenty-four hours after transfection, peptides and peptidomimetics were added to the culture medium for 24 h. […] For endogenous immunoprecipitation, SW480, DLD1, and RKO cells were seeded in 10-cm cell culture dishes.

COc1ccc(C(=O)N[C@@H](C)C(=O)NCC(=O)N[C@@H](CCC(=O)O)C(=O)N[C@@H](CO)C(=O)N[C@@H](CC(C)C)C(=O)N[C@@H](Cc2ccc(O)cc2)C(=O)N[C@@H](CCC(=O)O)C(N)=O)cc1 [MAI-516] ({Benzoyl(4-OMe)}-AGESLYE-NH2)
inhibition at 0.0002 µM ([1]; Conc. 0.0002 μM, individual repeats, Fig3b, read-out: %inhibition): 0.5%
inhibition at 0.0005 µM ([1]; Conc. 0.0005 μM, individual repeats, Fig3b, read-out: %inhibition): -0.4%
inhibition at 0.001 µM ([1]; Conc. 0.001 μM, individual repeats, Fig3b, read-out: %inhibition): 0.3%
inhibition at 0.002 µM ([1]; Conc. 0.002 μM, individual repeats, Fig3b, read-out: %inhibition): 0.4%
inhibition at 0.0024 µM ([1]; Conc. 0.0024 μM, individual repeats, Fig3b, read-out: %inhibition): 2.8%
inhibition at 0.0039 µM ([1]; Conc. 0.0039 μM, individual repeats, Fig3b, read-out: %inhibition): 3.1%
inhibition at 0.0049 µM ([1]; Conc. 0.0049 μM, individual repeats, Fig3b, read-out: %inhibition): 6.1%
inhibition at 0.006 µM ([1]; Conc. 0.006 μM, individual repeats, Fig3b, read-out: %inhibition): 3.8%
inhibition at 0.0078 µM ([1]; Conc. 0.0078 μM, individual repeats, Fig3b, read-out: %inhibition): 6.6%
inhibition at 0.0098 µM ([1]; Conc. 0.0098 μM, individual repeats, Fig3b, read-out: %inhibition): 13.7%
inhibition at 0.012 µM ([1]; Conc. 0.012 μM, individual repeats, Fig3b, read-out: %inhibition): 8.8%
inhibition at 0.0156 µM ([1]; Conc. 0.0156 μM, individual repeats, Fig3b, read-out: %inhibition): 19.4%
inhibition at 0.0195 µM ([1]; Conc. 0.0195 μM, individual repeats, Fig3b, read-out: %inhibition): 28.4%
inhibition at 0.024 µM ([1]; Conc. 0.024 μM, individual repeats, Fig3b, read-out: %inhibition): 22.1%
inhibition at 0.0313 µM ([1]; Conc. 0.0313 μM, individual repeats, Fig3b, read-out: %inhibition): 44%
inhibition at 0.0391 µM ([1]; Conc. 0.0391 μM, individual repeats, Fig3b, read-out: %inhibition): 48.7%
inhibition at 0.049 µM ([1]; Conc. 0.049 μM, individual repeats, Fig3b, read-out: %inhibition): 44.6%
inhibition at 0.0625 µM ([1]; Conc. 0.0625 μM, individual repeats, Fig3b, read-out: %inhibition): 65.8%
inhibition at 0.0781 µM ([1]; Conc. 0.0781 μM, individual repeats, Fig3b, read-out: %inhibition): 67.8%
inhibition at 0.098 µM ([1]; Conc. 0.098 μM, individual repeats, Fig3b, read-out: %inhibition): 67.3%
inhibition at 0.125 µM ([1]; Conc. 0.125 μM, individual repeats, Fig3b, read-out: %inhibition): 80.6%
inhibition at 0.1563 µM ([1]; Conc. 0.1563 μM, individual repeats, Fig3b, read-out: %inhibition): 82%
inhibition at 0.195 µM ([1]; Conc. 0.195 μM, individual repeats, Fig3b, read-out: %inhibition): 81.2%
inhibition at 0.25 µM ([1]; Conc. 0.25 μM, individual repeats, Fig3b, read-out: %inhibition): 89.6%
inhibition at 0.3125 µM ([1]; Conc. 0.3125 μM, individual repeats, Fig3b, read-out: %inhibition): 90.7%
inhibition at 0.391 µM ([1]; Conc. 0.391 μM, individual repeats, Fig3b, read-out: %inhibition): 89.5%
inhibition at 0.5 µM ([1]; Conc. 0.5 μM, individual repeats, Fig3b, read-out: %inhibition): 95.1%
inhibition at 0.625 µM ([1]; Conc. 0.625 μM, individual repeats, Fig3b, read-out: %inhibition): 96%
inhibition at 0.781 µM ([1]; Conc. 0.781 μM, individual repeats, Fig3b, read-out: %inhibition): 94.6%
inhibition at 1 µM ([1]; Conc. 1 μM, individual repeats, Fig3b, read-out: %inhibition): 98.2%
inhibition at 1.25 µM ([1]; Conc. 1.25 μM, individual repeats, Fig3b, read-out: %inhibition): 98.2%
inhibition at 1.563 µM ([1]; Conc. 1.563 μM, individual repeats, Fig3b, read-out: %inhibition): 96.2%
inhibition at 2 µM ([1]; Conc. 2 μM, individual repeats, Fig3b, read-out: %inhibition): 99.4%
inhibition at 2.5 µM ([1]; Conc. 2.5 μM, individual repeats, Fig3b, read-out: %inhibition): 99.2%
inhibition at 3.125 µM ([1]; Conc. 3.125 μM, individual repeats, Fig3b, read-out: %inhibition): 98.2%
inhibition at 5 µM ([1]; Conc. 5 μM, individual repeats, Fig3b, read-out: %inhibition): 100%
inhibition at 6.25 µM ([1]; Conc. 6.25 μM, individual repeats, Fig3b, read-out: %inhibition): 98.1%
inhibition at 10 µM ([1]; Conc. 10 μM, individual repeats, Fig3b, read-out: %inhibition): 101%
inhibition at 12.5 µM ([1]; Conc. 12.5 μM, individual repeats, Fig3b, read-out: %inhibition): 98.5%
inhibition at 20 µM ([1]; Conc. 20 μM, individual repeats, Fig3b, read-out: %inhibition): 100%
inhibition at 25 µM ([1]; Conc. 25 μM, individual repeats, Fig3b, read-out: %inhibition): 99.7%
inhibition at 50 µM ([1]; Conc. 50 μM, individual repeats, Fig3b, read-out: %inhibition): 99%
mean (FP signal, FigS5) ([1]; Repeat 1, Conc. 0.0024 μM): 278.3
mean (FP signal, FigS5) ([1]; Repeat 1, Conc. 0.0049 μM): 270.3
mean (FP signal, FigS5) ([1]; Repeat 1, Conc. 0.0098 μM): 252
mean (FP signal, FigS5) ([1]; Repeat 1, Conc. 0.0195 μM): 216.7
mean (FP signal, FigS5) ([1]; Repeat 1, Conc. 0.0391 μM): 168
mean (FP signal, FigS5) ([1]; Repeat 1, Conc. 0.0781 μM): 122
mean (FP signal, FigS5) ([1]; Repeat 1, Conc. 0.1563 μM): 88
mean (FP signal, FigS5) ([1]; Repeat 1, Conc. 0.3125 μM): 67
mean (FP signal, FigS5) ([1]; Repeat 1, Conc. 0.625 μM): 54.3
mean (FP signal, FigS5) ([1]; Repeat 1, Conc. 1.25 μM): 49
mean (FP signal, FigS5) ([1]; Repeat 1, Conc. 2.5 μM): 46.7
mean (FP signal, FigS5) ([1]; Repeat 1, Conc. 5 μM): 44.3
mean (FP signal, FigS5) ([1]; Repeat 1, Conc. 10 μM): 42.7
mean (FP signal, FigS5) ([1]; Repeat 1, Conc. 20 μM): 44.3
IC50 ([1]; Repeat 1, read-out: IC50(μM) Repeat 1): 0.0453 µM
mean (FP signal, FigS5) ([1]; Repeat 2, Conc. 0.0002 μM): 302.3
mean (FP signal, FigS5) ([1]; Repeat 2, Conc. 0.0005 μM): 304.7
mean (FP signal, FigS5) ([1]; Repeat 2, Conc. 0.001 μM): 303
mean (FP signal, FigS5) ([1]; Repeat 2, Conc. 0.002 μM): 302.7
mean (FP signal, FigS5) ([1]; Repeat 2, Conc. 0.0039 μM): 295.7
mean (FP signal, FigS5) ([1]; Repeat 2, Conc. 0.0078 μM): 286.7
mean (FP signal, FigS5) ([1]; Repeat 2, Conc. 0.0156 μM): 253.7
mean (FP signal, FigS5) ([1]; Repeat 2, Conc. 0.0313 μM): 190.3
mean (FP signal, FigS5) ([1]; Repeat 2, Conc. 0.0625 μM): 134.3
mean (FP signal, FigS5) ([1]; Repeat 2, Conc. 0.125 μM): 96.3
mean (FP signal, FigS5) ([1]; Repeat 2, Conc. 0.25 μM): 73
mean (FP signal, FigS5) ([1]; Repeat 2, Conc. 0.5 μM): 59
mean (FP signal, FigS5) ([1]; Repeat 2, Conc. 1 μM): 51
mean (FP signal, FigS5) ([1]; Repeat 2, Conc. 2 μM): 48
IC50 ([1]; Repeat 2, read-out: IC50(μM) Repeat 2): 0.0412 µM
mean (FP signal, FigS5) ([1]; Repeat 3, Conc. 0.006 μM): 307.3
mean (FP signal, FigS5) ([1]; Repeat 3, Conc. 0.012 μM): 294
mean (FP signal, FigS5) ([1]; Repeat 3, Conc. 0.024 μM): 259
mean (FP signal, FigS5) ([1]; Repeat 3, Conc. 0.049 μM): 199.7
mean (FP signal, FigS5) ([1]; Repeat 3, Conc. 0.098 μM): 140
mean (FP signal, FigS5) ([1]; Repeat 3, Conc. 0.195 μM): 103.3
mean (FP signal, FigS5) ([1]; Repeat 3, Conc. 0.391 μM): 81.3
mean (FP signal, FigS5) ([1]; Repeat 3, Conc. 0.781 μM): 68
mean (FP signal, FigS5) ([1]; Repeat 3, Conc. 1.563 μM): 63.7
mean (FP signal, FigS5) ([1]; Repeat 3, Conc. 3.125 μM): 58.3
mean (FP signal, FigS5) ([1]; Repeat 3, Conc. 6.25 μM): 58.7
mean (FP signal, FigS5) ([1]; Repeat 3, Conc. 12.5 μM): 57.7
mean (FP signal, FigS5) ([1]; Repeat 3, Conc. 25 μM): 54.3
mean (FP signal, FigS5) ([1]; Repeat 3, Conc. 50 μM): 56.3
IC50 ([1]; Repeat 3, read-out: IC50(μM) Repeat 3): 0.0379 µM
IC50 ([1]; mean of 3 repeats, read-out: IC50(μM) mean): 0.0415 µM
effect on APC–Asef PPI (Co-IP) [2]: no effect
